Results: PubChem BioAssay AID732 (Emory University Molecular Libraries Screening Center, 2007)
Calls of active or inactive are those of the source. How the calls were made is not given here.

System: in vivo angiogenesis, blood vessel count
Experiment: angiogenesis inhibition in living animals, in vivo study, HTS (AID 732);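 further: zebrafish embryos dosed at one day post fertilization; 0% = reference inhibitor and 100% = plate mean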
Conditions: stronger effect = lower value;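 tested at 30 µM in the well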

Compound	vessel count % control
CCCC(=O)NCCc1c2n(c3ccc(OC)cc13)Cc1ccccc1-2	111% (inactive)
COC(=O)C1=C(C)NC(C)=C([N+](=O)[O-])C1c1ccccc1C(F)(F)F (stereo not drawn)	92.2% (inactive)
CC(CN(C)C)CN1c2ccccc2CCc2ccccc21 (stereo not drawn)	97.1% (inactive)
NC(=O)c1ccccc1	92% (inactive)
CCN(CCCl)Cc1ccccc1Br	99.8% (inactive)
COc1ccccc1NC(=O)Nc1nc(-c2cccnc2)nc2ccccc12	85.6% (inactive)
CC(C)(O)[C@@H]1[C@H]2OC(=O)[C@@H]1[C@]1(O)C[C@H]3O[C@]34C(=O)O[C@H]2[C@]14C (tested in a mixture with another compound)	116% (inactive)
COc1cc(NS(C)(=O)=O)ccc1Nc1c2ccccc2nc2ccccc12	106% (inactive)
Nc1ccncc1	118% (inactive)
COCCOC(=O)C1=C(C)NC(C)=C(C(=O)OC(C)C)C1c1cccc([N+](=O)[O-])c1 (stereo not drawn)	95.6% (inactive)
O=C(O)Cc1cnc[nH]1	110% (inactive)
Nc1nc(Cl)nc2c1ncn2[C@@H]1O[C@H](COP(=O)(O)OP(=O)(O)OP(=O)(O)O)[C@H](O)C1O (stereo partly drawn)	107% (inactive)
CC1(C)CCC(NC(=O)[C@@H](N)CCC(=O)O)CC1	122% (inactive)
CC1(C)CCC2=C(O1)c1ccccc1C(=O)C2=O	65.8% (inactive)
NCCc1c[nH]c2ccc(C(N)=O)cc12	112% (inactive)
COc1ccc2[nH]c3c(c2c1)CCNC3	137% (inactive)
CC(C)(C)NCC(O)c1cc(O)cc(O)c1 (stereo not drawn)	93.9% (inactive)
O[Si](CCCN1CCCCC1)(c1ccc(F)cc1)C1CCCCC1 (stereo not drawn)	107% (inactive)
COc1ccc2c(c[n+](C)c3c4cc5c(cc4ccc23)OCO5)c1OC	124% (inactive)
OCCN1CCN(CCCN2c3ccccc3Sc3ccc(Cl)cc32)CC1	99.2% (inactive)
CN(C)CCC(c1ccc(Cl)cc1)c1ccccn1 (stereo not drawn)	128% (inactive)
CCCCNc1cc(C(=O)O)cc(S(N)(=O)=O)c1Oc1ccccc1	59.2% (inactive)
O=C(O)CCCC[C@@H]1CCSS1	100% (inactive)
Nc1nc2ccc(Cl)cc2c2nc(-c3ccco3)nn12	95.7% (inactive)
NC(=O)N1c2ccccc2C=Cc2ccccc21	96.4% (inactive)

Compound	vessel count % control
CC(=O)[C@H]1CCC2C3CC=C4C[C@@H](OS(=O)(=O)O)CC[C@]4(C)C3CC[C@@]21C (stereo partly drawn)	85% (inactive)
CCCCCCCCCCCCCCCC(=O)OC(CC(=O)O)C[N+](C)(C)C (stereo not drawn)	92% (inactive)
CCC1(O)CC2CN(CCc3c([nH]c4ccccc34)[C@@](C(=O)OC)(c3cc4c(cc3OC)N(C)C3[C@]45CCN4CC=C[C@@](CC)([C@@H](OC(C)=O)[C@]3(O)C(=O)OC)[C@H]45)C2)C1 (stereo partly drawn)	112% (inactive)
NC(=Nc1ccccc1)NC(=O)c1nc(Cl)c(N)nc1N	104% (inactive)
NC(Cc1ccc(N(CCCl)CCCl)cc1)C(=O)O (stereo not drawn)	123% (inactive)
CCCCCCCCCCCCCCCCCC(=O)NCC(COP(=O)([O-])OCC[N+](C)(C)C)OCC (stereo not drawn)	101% (inactive)
C[N+](C)(C)CC#CCOC(=O)Nc1cccc(Cl)c1	81.2% (inactive)
COCCc1ccc(OCC(O)CNC(C)C)cc1 (stereo not drawn)	128% (inactive)
CC(=O)[C@@]1(O)CC[C@H]2[C@@H]3CCC4=CC(=O)CC[C@]4(C)[C@H]3CC[C@@]21C	98.7% (inactive)
C=CCN1CCC2(C)c3cc(O)ccc3CC1C2C (stereo not drawn)	109% (inactive)
C=CCN1CCc2cccc3c2[C@H]1Cc1ccc(O)c(O)c1-3	113% (inactive)
CCOC(=O)C1=C[C@]2(CC)CCCN3CCc4c(n1c1ccccc41)[C@@H]32	0% (inactive)
CC(C[N+](C)(C)C)OC(N)=O (stereo not drawn)	91.7% (inactive)
CCc1c(C)[nH]c2c1C(=O)C(CN1CCOCC1)CC2 (stereo not drawn)	93.5% (inactive)
C[C@]12CC[C@@H](O)CC1CC[C@@H]1[C@@H]2CC[C@]2(C)C(=O)CC[C@@H]12 (stereo partly drawn)	104% (inactive)
CC(C)(CO)Cc1cc(C(C)(C)C)c(O)c(C(C)(C)C)c1	105% (inactive)
Oc1cc2c(cc1O)CN(C(=S)NCCc1ccc(Cl)cc1)CCC2	93.3% (inactive)
N#C/C(=C\c1ccc(O)c(O)c1)C(=O)NCCCNC(=O)/C(C#N)=C/c1ccc(O)c(O)c1	118% (inactive)
NC(CCCCCP(=O)(O)O)C(=O)O (stereo not drawn)	113% (inactive)
Nc1ccc(S(=O)(=O)Nc2ccnn2-c2ccccc2)cc1	122% (inactive)
NS(=O)(=O)c1cc2c(cc1Cl)NC=NS2(=O)=O	135% (inactive)
COc1ccc(C(=O)NCc2cccnc2)cc1C(=O)NCc1cccnc1	109% (inactive)
Cc1cnc(NC(=O)C2=C(O)c3ccccc3S(=O)(=O)N2C)s1	136% (inactive)
N.N.O=C(O)C1(C(=O)O)CCC1.[Pt+2]	105% (inactive)
O=c1[nH]oc2c1CCNC2	103% (inactive)

Compound	vessel count % control
CC(C)NC[C@@H](O)c1ccc(O)c(O)c1	108% (inactive)
OC(CN1CCC(Cc2ccc(F)cc2)CC1)c1ccc(Cl)cc1 (stereo not drawn)	61.6% (inactive)
CN(C)CCC=C1c2ccccc2CCc2ccccc21	91.2% (inactive)
O=C1NC(O)=NC1(c1ccccc1)c1ccccc1	106% (inactive)
CC(C)(Oc1ccc(C2CC2(Cl)Cl)cc1)C(=O)O (stereo not drawn)	96.9% (inactive)
Cc1cc(C(C)(C)C)c(O)c(C)c1CC1=NCCN1	106% (inactive)
CCCCCN(CCCCC)C(=O)C(CCC(=O)O)NC(=O)c1ccc(Cl)c(Cl)c1 (stereo not drawn)	81.3% (inactive)
Nc1nnc(-c2cccc(Cl)c2Cl)c(N)n1	62.2% (inactive)
O=C(O)C1C2CCC(O2)C1C(=O)O (stereo not drawn)	98.3% (inactive)
COc1cc2c(cc1OC)[C@@H](c1ccccc1)CN(C)CC2	91.5% (inactive)
C[C@H]1O[C@@H](n2cc(F)c(=O)[nH]c2=O)[C@H](O)[C@@H]1O	108% (inactive)
Cc1ccccc1N1CCN(S(=O)(=O)C[C@]23CCC(CC2NC(=O)[C@@H](N)CCS(C)(=O)=O)C3(C)C)CC1 (stereo partly drawn)	107% (inactive)
C=CCN1CCc2c(cc(O)c(O)c2Cl)C(c2ccccc2)C1 (stereo not drawn)	121% (inactive)
N[C@@H](Cc1ccc(F)cc1)C(=O)O	108% (inactive)
CN(Cc1cnc2nc(N)nc(N)c2n1)c1ccc(C(=O)N[C@@H](CCC(=O)O)C(=O)O)cc1	112% (inactive)
CCn1nc(C(=O)O)c(=O)c2cc3c(cc21)OCO3	102% (inactive)
Oc1ccc2c3c1O[C@H]1c4[nH]c5c(c4C[C@@]4(O)[C@@H](C2)N(CC2CC2)CC[C@]314)C[C@@]1(O)[C@H]2Cc3ccc(O)c4c3[C@@]1(CCN2CC1CC1)[C@H]5O4	81.2% (inactive)
C=C[C@H]1CN2CCC1C[C@@H]2[C@@H](O)c1ccnc2ccc(OC)cc12 (stereo partly drawn)	149% (inactive)
COc1ccc(Cl)cc1C(=O)NCCc1ccc(S(=O)(=O)NC(=O)NC2CCCCC2)cc1	94.8% (inactive)
CC1=C(/C=C/C(C)=C/C=C/C(C)=C/C(=O)Nc2ccc(O)cc2)C(C)(C)CCC1	96.8% (inactive)
NCC(O)C1CCCCCCC1 (stereo not drawn)	95.9% (inactive)
Cn1ccnc1	109% (inactive)
N#C/C(=C\c1ccc(O)c(O)c1)C(=O)NCc1ccccc1	95.6% (inactive)
CC(=O)N[C@H](C(=O)O)C(C)(C)SN=O	94.3% (inactive)
C[N+](C)(C)CC=O	104% (inactive)

Compound	vessel count % control
O=C1NC(=O)C(c2ccccc2)(c2ccccc2)N1	92.7% (inactive)
NS(=O)(=O)c1cccc2c1c([N+](=O)[O-])cc1nc(O)c(O)nc12	111% (inactive)
N#CC(=C(\N)Sc1ccccc1N)/C(C#N)=C(/N)Sc1ccccc1N	94.5% (inactive)
Cc1cccc2c(-c3[nH]c4ccccc4c3N=O)c(O)[nH]c12	25.1%
C#CCN(C)CCCOc1ccc(Cl)cc1Cl	100% (inactive)
COc1cc(C=C(C#N)C#N)cc(O)c1O	114% (inactive)
O=C1CC2(CCCC2)CC(=O)N1CCCCN1CCN(c2ncccn2)CC1	114% (inactive)
Oc1ccc(O)cc1	128% (inactive)
CC(C)(C)c1ccc(C(O)CCCN2CCC(C(O)(c3ccccc3)c3ccccc3)CC2)cc1 (stereo not drawn)	99.8% (inactive)
O=C1CCc2cc(OCCCCc3nnnn3C3CCCCC3)ccc2N1	124% (inactive)
N[C@@H](CCl)C(=O)O	101% (inactive)
Clc1ccc(Cn2c(CN3CCCC3)nc3ccccc32)cc1	81.8% (inactive)
O=c1[nH]cnc2[nH]ncc12	120% (inactive)
CCNC(=O)[C@H]1O[C@@H](n2cnc3c(N)ncnc32)C(O)[C@H]1O (stereo partly drawn)	110% (inactive)
NC(=S)NCCCC(N)C(=O)O (stereo not drawn)	119% (inactive)
CCCN1C[C@H](CSC)C[C@@H]2c3cccc4[nH]cc(c34)C[C@H]21	96.8% (inactive)
C/C(O)=C(\C#N)C(=O)Nc1cc(Br)ccc1Br	139% (inactive)
CC[C@@H](CO)NC(=O)[C@@H]1C=C2c3cccc4c3c(cn4C)C[C@H]2N(C)C1	70.9% (inactive)
NC(=O)CC[C@H](N)C(=O)O	104% (inactive)
CC(N)=NCCC[C@H](N)C(=O)O	134% (inactive)
CN1C2CCC1CC(OC(=O)c1c[nH]c3ccccc13)C2 (stereo not drawn)	91.1% (inactive)
Nc1nc(N)c2nc(-c3ccccc3)c(N)nc2n1	109% (inactive)
CCCN1CCC[C@H](c2cccc(O)c2)C1	77.4% (inactive)
